{"source": "paper PMC7675540", "about": "(ACS Omega, 2020)", "molecular_target": "T1, carboxylesterase 1 (CES1) (Homo sapiens, UniProt P23141)", "T1 sequence (P23141 18-567)": "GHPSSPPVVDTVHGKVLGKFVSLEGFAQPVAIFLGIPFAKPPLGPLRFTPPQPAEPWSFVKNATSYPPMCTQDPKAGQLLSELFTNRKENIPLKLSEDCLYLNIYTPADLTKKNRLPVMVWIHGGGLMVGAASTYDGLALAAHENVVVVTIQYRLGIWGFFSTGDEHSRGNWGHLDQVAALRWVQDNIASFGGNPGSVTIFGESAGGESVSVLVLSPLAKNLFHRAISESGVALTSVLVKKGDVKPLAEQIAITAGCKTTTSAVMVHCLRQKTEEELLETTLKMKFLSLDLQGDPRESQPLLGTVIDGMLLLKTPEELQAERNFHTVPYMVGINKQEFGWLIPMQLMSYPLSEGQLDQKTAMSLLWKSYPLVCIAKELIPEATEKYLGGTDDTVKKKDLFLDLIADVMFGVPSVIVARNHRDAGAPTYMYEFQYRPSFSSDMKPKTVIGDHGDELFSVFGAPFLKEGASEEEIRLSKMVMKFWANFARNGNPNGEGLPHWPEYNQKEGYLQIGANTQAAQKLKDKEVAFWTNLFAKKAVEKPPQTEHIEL", "assay": "LC-MS/MS of the product of PGD2-G hydrolysis", "format": "biochemical", "data": [{"compound": "CCCCC[C@H](O)/C=C/[C@H]1C(=O)C[C@H](O)[C@@H]1C/C=C\\CCCC(=O)O", "note": "[PGD2]", "values": [{"measurement": "LC-MS/MS of the product of PGD2-G hydrolysis", "result": "Our data indicates that PGD2-G/PGD2 is a substrate/product dyad for CES1."}]}]}
